# Data reported in the supplement of paper PMC10883282.
# ± gives the standard deviation of the averaged measurements.
# System: VA-ES-BJ
# Assay: relative viability vs DMSO control (72 h) (fraction); higher = more viable cells
# Outline: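 Relative viability was measured with ATPLite and expressed as percent growth, averaged across up to triplicate wells. Sarcoma cell lines had been seeded in 384-well plates to reach 80–90% confluence, dosed after 24 h, and incubated 72 h at 37 °C, 5% CO2. All data were rescaled on a scale where 1 is full and 0 is none.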
Compound,relative viability (0.00017 µM),relative viability (0.00051 µM),relative viability (0.00152 µM),relative viability (0.00457 µM),relative viability (0.01372 µM),relative viability (0.04115 µM),relative viability (0.1235 µM),relative viability (0.3704 µM),relative viability (1.111 µM),relative viability (3.333 µM),relative viability (10 µM)
COc1cc2/c(=N/c3ccc(Br)cc3F)nc[nH]c2cc1OCC1CCN(C)CC1 [Vandetanib],1.04 ± 0.044,1.04 ± 0.027,1.03 ± 0.043,1.05 ± 0.073,1.06 ± 0.022,1.1 ± 0.04,1.11 ± 0.029,1.11 ± 0.018,1.08 ± 0.02,0.93 ± 0.035,0.239 ± 0.0077
CCc1cc2c(cc1N1CCC(N3CCOCC3)CC1)C(C)(C)c1[nH]c3cc(C#N)ccc3c1C2=O [Alectinib],1.03 ± 0.047,1.07 ± 0.042,1.04 ± 0.057,1.04 ± 0.027,1.02 ± 0.041,1.06 ± 0.048,1.04 ± 0.0046,0.891 ± 0.27,0.912 ± 0.26,0.941 ± 0.24,0.905 ± 0.25
Cc1nc(-c2cn3c(n2)-c2ccc(-c4cnn(C(C)(C)C(N)=O)c4)cc2OCC3)n(C(C)C)n1 [Taselisib],1.01 ± 0.045,1.01 ± 0.03,1.02 ± 0.071,0.971 ± 0.048,0.943 ± 0.038,0.844 ± 0.039,0.75 ± 0.06,0.616 ± 0.056,0.379 ± 0.013,0.293 ± 0.028,0.144 ± 0.15
O=C(Cc1ccc(-c2ccc(OCCN3CCOCC3)cc2)cn1)NCc1ccccc1 [KX2-391],1.09 ± 0.045,1.06 ± 0.043,1.06 ± 0.021,1.05 ± 0.044,0.96 ± 0.032,0.584 ± 0.026,0.385 ± 0.021,0.368 ± 0.021,0.314 ± 0.015,0.29 ± 0.017,0.309 ± 0.018
